Laboratory results from patent US8252942B2, “Substituted imidazoline compounds” (Board of Trustees of Michigan State University, priority 2008, dated 2012).

Experiments:
[1] = tested on: RPMI-8226 cells; assay: Cell death in multiple myeloma cells, MTS assay; format: cell-based; conditions: Homo sapiens, RPMI-8226, 24 h
Experimental: RPMI-8226 cells were treated with various concentrations of TCH-013 in duplicate and incubated for 24 hours. Percent survival was extrapolated based on mitochondrial activity as determined by MTS assay.
(§1) Given the critical role NF-κB-mediated IL-6 production plays in the growth and […] of multiple myeloma, we investigated the use of TCH-013 in somewhat more detail in a MM cell line (RPMI-8226).

[2] = tested on: white blood cells (lymphocytes) in human blood; assay: Cytotoxicity towards lymphocytes in human blood; format: cell-based; conditions: human blood exposed 24 hours, lymphocyte survival, effective concentrations (<20 μM) (FIG. 11)
Experimental: Human blood was exposed to TCH-013 (imidazoline 1) for 24 hours at various concentrations and the lymphocytes were evaluated for survival.
as §1

Compound	CC50 [1] [µM]	cytotoxicity towards white blood cells [2]
CCOC(=O)[C@@]1(c2ccccc2)N=C(c2ccccc2)N(Cc2ccccc2)[C@H]1c1ccccc1 (racemic) [TCH-013]	4	no significant cytotoxicity
COc1cccc2c1C(=O)c1c(O)c3c(c(O)c1C2=O)C[C@@](O)(C(=O)CO)C[C@@H]3O[C@H]1C[C@H](N)[C@H](O)[C@H](C)O1 [doxorubicin]	1.2	–
N[C@@H](Cc1ccc(N(CCCl)CCCl)cc1)C(=O)O [melphalan]	30.6	–
